US12144874B2, “Synthesis and composition of photodynamic therapeutic agents for the targeted treatment of cancer” (On Target Laboratories, LLC, priority 2015, dated 2024)
Entries after “also recorded” stand apart in the source; their conditions may differ. Like-named read-outs stand apart in the source and are kept apart here.

Assays:
KB cells = details: for IC50: Table 3, nucleus-targeted modified PDT agents
subcutaneous KB tumor = assay: In vivo PDT efficacy on growth of subcutaneous KB tumor xenograft in nude mice; details: 50 nmol dose, laser 75 mW/cm^2, 137 J/cm^2, 38 min, 3 h after injection
Method: The growth of the tumor was monitored (images were taken) and tumor volume was measured using caliper.
In the following examples, the in vivo efficacy of the compounds is determined using KB tumor cell xenograft in nude mice. In these studies, KB cells were implanted subcutaneously and growth of the tumors was monitored. […] Moreover, once tumors grow to […], the compounds were injected via tail vein. […] In vivo efficacy of BPheid-a was evaluated by monitoring reduction of tumor volume.
KB cells that overexpressed folate receptor were implanted subcutaneously into female nude mice and allowed to grow to ˜50 mm^3 prior to initiation of treatment with 50 nmol of BPheid-a (1). […] In vivo efficacy of BPheid-a was evaluated by monitoring reduction of tumor volume.

[1] = Table 2, mitochondrial-targeted modified PDT agents, free drugs in DMSO, 2 h incubation, laser 32 min, then 24 h
[2] = free drugs in DMSO, 2 h incubation, laser 32 min, then 24 h
[3] = Table 8, folate-targeted releasable visudyne conjugates

CC[C@H]1c2cc3[nH]c4c(c3C)C(=O)C(C(=O)OC)c4c3nc(cc4[nH]c(cc(n2)[C@@H]1C)c(C(C)=O)c4C)[C@@H](C)[C@@H]3CCC(=O)NNC(=O)OCCSSC[C@H](NC(=O)CCOCCOCCOCCOCCOCCOCCNC(=O)CC[C@H](NC(=O)c1ccc(NCc2cnc3nc(N)[nH]c(=O)c3n2)cc1)C(=O)O)C(=O)O (single isomer, unassigned) [Compound 76b]
EC50 (KB cells; 2 h): 0.32 µM | Effect on growth of subcutaneous KB tumor, in words (subcutaneous KB tumor): less active in mice as compared to 76a and 76c; also recorded: completely cured with no recurrence during the monitored time (3 weeks)

CC[C@H]1c2cc3[nH]c4c(c3C)C(=O)C(C(=O)OC)c4c3nc(cc4[nH]c(cc(n2)[C@@H]1C)c(C(C)=O)c4C)[C@@H](C)[C@@H]3CCC(=O)NNC(=O)OCCSSC[C@H](NC(=O)CCOCCOCCOCCOCCOCCOCCOCCOCCNC(=O)CC[C@H](NC(=O)c1ccc(NCc2cnc3nc(N)[nH]c(=O)c3n2)cc1)C(=O)O)C(=O)O (single isomer, unassigned) [Compound 76d]
EC50 (KB cells; 2 h): 0.339 µM

Oc1cccc(-c2c3nc(c(-c4cccc(O)c4)c4ccc([nH]4)c(-c4cccc(O)c4)c4nc(c(-c5cccc(O)c5)c5ccc2[nH]5)CC4)C=C3)c1 [Compound 6, Foscan, reference compound]
EC50 (KB cells; Table 1, non-targeted PDT agents, free drugs in DMSO, 2 h incubation, laser 6 mW/cm^2, 12 J/cm^2, 32 min, then 24 h): Not active

CC[C@H]1c2cc3[nH]c4c(c3C)C(=O)C(C(=O)OC)c4c3nc(cc4[nH]c(cc(n2)[C@@H]1C)c(C(C)=O)c4C)[C@@H](C)[C@@H]3CCC(=O)NCCC[C@@H](C(=O)OC(C)(C)C)[N+](C)(C)C (stereo partly drawn) [Compound 11b]
EC50 (KB cells; [1]): 0.0231 µM

CC[C@H]1c2cc3[nH]c4c(c3C)C(=O)C(C(=O)OC)c4c3nc(cc4[nH]c(cc(n2)[C@@H]1C)c(C(C)=O)c4C)[C@@H](C)[C@@H]3CCC(=O)NCCC[C@@H](C(=O)O)[N+](C)(C)C (stereo partly drawn) [Compound 12b]
EC50 (KB cells; [1]): 0.0154 µM

CC[C@H]1c2cc3[nH]c4c(c3C)C(=O)C(C(=O)OC)c4c3nc(cc4[nH]c(cc(n2)[C@@H]1C)c(C(C)=O)c4C)[C@@H](C)[C@@H]3CCC(=O)N[C@@H](CCC(=O)NC1C(O)OC(CO)C(O)C1O)C(=O)O (stereo partly drawn) [Compound 19]
EC50 (KB cells; [1]): 0.55 µM

CC[C@H]1C2=Cc3c(C)c(C(=O)NNC(=O)Nc4cccc(S(=O)(=O)O)c4)c4[n]3[Pd][n]3c(c(C)c(C(C)=O)c3=CC(=N2)[C@@H]1C)=CC1=NC(=C4CC(=O)OC)[C@@H](CCC(=O)O)[C@@H]1C [Compound 39]
IC50 (KB cells; [2]): Not active*

CC[C@H]1c2cc3[nH]c4c(c3C)C(=O)C(C(=O)OC)c4c3nc(cc4[nH]c(cc(n2)[C@@H]1C)c(C(C)=O)c4C)[C@@H](C)[C@@H]3CCC(=O)N[C@@H](CC(=O)NCCS(=O)(=O)O)C(=O)O (stereo partly drawn) [Compound 40]
IC50 (KB cells; [2]): 4.08 µM

CC[C@H]1c2cc3[nH]c4c(c3C)C(=O)C(C(=O)OC)c4c3nc(cc4[nH]c(cc(n2)[C@@H]1C)c(C(C)=O)c4C)[C@@H](C)[C@@H]3CCC(=O)NC(Cc1ccc(N(CCCl)CCCl)cc1)C(=O)O (stereo partly drawn) [Compound 41]
IC50 (KB cells; [2]): 0.068 µM

CC[C@H]1c2cc3[nH]c4c(c3C)C(=O)C(C(=O)OC)c4c3nc(cc4[nH]c(cc(n2)[C@@H]1C)c(C(C)=O)c4C)[C@@H](C)[C@@H]3CCC(=O)NCCSSC[C@H](NC(=O)[C@H](CC(=O)NCCS(=O)(=O)O)NC(=O)CC[C@H](NC(=O)c1ccc(NCc2cnc3nc(N)[nH]c(=O)c3n2)cc1)C(=O)O)C(=O)O (stereo partly drawn) [Compound 64]
Effect on growth of subcutaneous KB tumor, in words (subcutaneous KB tumor): completely cure the tumor and showed tumor regression for 2 weeks

CC[C@H]1c2cc3[nH]c4c(c3C)C(=O)C(C(=O)OC)c4c3nc(cc4[nH]c(cc(n2)[C@@H]1C)c(C(C)=O)c4C)[C@@H](C)[C@@H]3CCC(=O)NCCNC(=O)OCCSSC[C@H](NC(=O)[C@H](CC(=O)NCCS(=O)(=O)O)NC(=O)CC[C@H](NC(=O)c1ccc(NCc2cnc3nc(N)[nH]c(=O)c3n2)cc1)C(=O)O)C(=O)O (stereo partly drawn) [Compound 65c]
EC50 (KB cells; 2 h): 0.0116 µM

C=CC1=C(C)c2cc3[nH]c(cc4nc(cc5[nH]c(cc1n2)c(C)c5CCC(=O)OC)C(CCC(=O)NNC(=O)OCCSSCC(NC(=O)c1ccc(NCc2cnc5nc(N)[nH]c(=O)c5n2)cc1)C(=O)O)=C4C)[C@@]1(C)C3=CC=C(C(=O)OC)[C@H]1C(=O)OC (stereo partly drawn) [Compound 81]
Activity on KB cancer cells in culture, in words (KB cells): not active | EC50 (KB cells; [3]): Not active*

C=CC1=C(C)c2cc3[nH]c(cc4nc(cc5[nH]c(cc1n2)c(C)c5CCC(=O)NNC(=O)OCCSSC[C@H](NC(=O)[C@H](CCCNC(=N)N)NC(=O)C[C@@H](NC(=O)[C@H](CCCNC(=N)N)NC(=O)CC[C@H](NC(=O)c1ccc(NCc2cnc5nc(N)[nH]c(=O)c5n2)cc1)C(=O)O)C(=O)O)C(=O)O)C(CCC(=O)OC)=C4C)[C@]1(C)C3=CC=C(C(=O)OC)[C@@H]1C(=O)OC [Compound 85]
Activity on KB cancer cells in culture, in words (KB cells): not active | EC50 (KB cells; [3]): Not active*

CC[C@H]1c2cc3[nH]c(c(CC(=O)OC)c4nc(cc5[nH]c(cc(n2)[C@@H]1C)c(C(C)=O)c5C)[C@@H](C)[C@@H]4CCC(=O)NNC(=O)OCCSSC[C@H](NC(=O)CCOCCOCCOCCOCCOCCOCCNC(=O)CC[C@H](NC(=O)c1ccc(NCc2cnc4nc(N)[nH]c(=O)c4n2)cc1)C(=O)O)C(=O)O)c(C(=O)N[N+](C)(C)C)c3C [Compound 87b]
EC50 (KB cells; 2 h): 6.04 µM

CC[C@H]1c2cc3[nH]c(c(CC(=O)OC)c4nc(cc5[nH]c(cc(n2)[C@@H]1C)c(C(C)=O)c5C)[C@@H](C)[C@@H]4CCC(=O)NNC(=O)OCCSSC[C@H](NC(=O)CCOCCOCCOCCOCCOCCOCCOCCOCCNC(=O)CC[C@H](NC(=O)c1ccc(NCc2cnc4nc(N)[nH]c(=O)c4n2)cc1)C(=O)O)C(=O)O)c(C(=O)NCCOCCOCCO)c3C [Compound 88a]
Activity class on KB cancer cells in culture (active / highly active) (KB cells): active | EC50 (KB cells; 2 h): 0.0345 µM

CC[C@@H]1c2cc3[nH]c4c(c3C)C(=O)C(C(=O)OC)c4c3nc(cc4[nH]c(cc(n2)[C@H]1C)c(C(C)=O)c4C)[C@H](C)[C@H]3CCC(=O)NCCC[C@@H](C(=O)NNC(=O)OCCSSC[C@H](NC(=O)[C@H](CC(=O)NCCS(=O)(=O)O)NC(=O)CC[C@H](NC(=O)c1ccc(NCc2cnc3nc(N)[nH]c(=O)c3n2)cc1)C(=O)O)C(=O)O)[N+](C)(C)C (stereo partly drawn) [Compound 89a]
EC50 (KB cells; 2 h): 0.0037 µM | Effect on growth of subcutaneous KB tumor, in words (subcutaneous KB tumor): completely reduced the tumor

CC[C@H]1c2cc3[nH]c4c(c3C)C(=O)C(C(=O)OC)c4c3nc(cc4[nH]c(cc(n2)[C@@H]1C)c(C(C)=O)c4C)[C@@H](C)[C@@H]3CCC(=O)NC(CC(=O)NC1C(O)OC(CO)C(O)C1O)C(=O)NNC(=O)OCCSSC[C@H](NC(=O)[C@H](CC(=O)NCCS(=O)(=O)O)NC(=O)CC[C@H](NC(=O)c1ccc(NCc2cnc3nc(N)[nH]c(=O)c3n2)cc1)C(=O)O)C(=O)O (stereo partly drawn) [Compound 92a]
Activity class on KB cancer cells in culture (active / highly active) (KB cells): active | EC50 (KB cells; 2 h): 0.0328 µM | Effect on growth of subcutaneous KB tumor, in words (subcutaneous KB tumor): completely reduced the tumor

CC[C@H]1c2cc3[nH]c4c(c3C)C(=O)C(C(=O)OC)c4c3nc(cc4[nH]c(cc(n2)[C@@H]1C)c(C(C)=O)c4C)[C@@H](C)[C@@H]3CCC(=O)N[C@@H](CC(=O)N[N+](C)(C)C)C(=O)NNC(=O)OCCSSC[C@H](NC(=O)C[C@H](NC(=O)CC[C@H](NC(=O)c1ccc(NCc2cnc3nc(N)[nH]c(=O)c3n2)cc1)C(=O)O)C(=O)NCCS(=O)(=O)O)C(=O)O (stereo partly drawn) [Compound 95a]
EC50 (KB cells; 2 h): 0.166 µM

CC[C@H]1c2cc3[nH]c4c(c3C)C(=O)C(C(=O)OC)c4c3nc(cc4[nH]c(cc(n2)[C@@H]1C)c(C(C)=O)c4C)[C@@H](C)[C@@H]3CCC(=O)NCCC[C@H](NC(=O)CC[P+](c1ccccc1)(c1ccccc1)c1ccccc1)C(=O)NCCSSC[C@H](NC(=O)[C@H](CC(=O)NCCS(=O)(=O)O)NC(=O)CC[C@H](NC(=O)c1ccc(NCc2cnc3nc(N)[nH]c(=O)c3n2)cc1)C(=O)O)C(=O)O (stereo partly drawn) [Compound 99]
EC50 (KB cells; 2 h): 0.0053 µM

CC[C@H]1c2cc3[nH]c(c(CC(=O)OC)c4nc(cc5[nH]c(cc(n2)[C@@H]1C)c(C(C)=O)c5C)[C@@H](C)[C@@H]4CCC(=O)NCCSSC[C@H](NC(=O)[C@H](CC(=O)NCCS(=O)(=O)O)NC(=O)CC[C@H](NC(=O)c1ccc(NCc2cnc4nc(N)[nH]c(=O)c4n2)cc1)C(=O)O)C(=O)O)c(C(=O)N[N+](C)(C)C)c3C [Compound 101]
EC50 (KB cells; 2 h): 0.159 µM

CC[C@H]1c2cc3[nH]c4c(c3C)C(=O)C(C(=O)OC)c4c3nc(cc4[nH]c(cc(n2)[C@@H]1C)c(C(C)=O)c4C)[C@@H](C)[C@@H]3CCC(=O)NCCSSC[C@H](NC(=O)[C@H](CC(=O)NCCS(=O)(=O)O)NC(=O)[C@H](CC(=O)NCCS(=O)(=O)O)NC(=O)CC[C@H](NC(=O)c1ccc(NCc2cnc3nc(N)[nH]c(=O)c3n2)cc1)C(=O)O)C(=O)O (stereo partly drawn) [Compound 105]
EC50 (KB cells; 2 h): 0.0453 µM

CC[C@H]1c2cc3[nH]c4c(c3C)C(=O)C(C(=O)OC)c4c3nc(cc4[nH]c(cc(n2)[C@@H]1C)c(C(C)=O)c4C)[C@@H](C)[C@@H]3CCC(=O)NCCCC(NC(=O)c1ccc(N(C)Cc2cnc3nc(N)nc(N)c3n2)cc1)C(=O)NNC(=O)OCCSSC[C@H](NC(=O)[C@H](CC(=O)NCCS(=O)(=O)O)NC(=O)CC[C@H](NC(=O)c1ccc(NCc2cnc3nc(N)[nH]c(=O)c3n2)cc1)C(=O)O)C(=O)O (stereo partly drawn) [Compound 117]
EC50 (KB cells; 2 h): 2.85 µM

CC[C@H]1c2cc3[nH]c4c(c3C)C(=O)C(C(=O)OC)c4c3nc(cc4[nH]c(cc(n2)[C@@H]1C)c(C(C)=O)c4C)[C@@H](C)[C@@H]3CCC(=O)N[C@@H](CCC(=O)NCCS(=O)(=O)O)C(=O)NCCNC(=O)OCCSSC[C@H](NC(=O)[C@H](CC(=O)NCCS(=O)(=O)O)NC(=O)CC[C@H](NC(=O)c1ccc(NCc2cnc3nc(N)[nH]c(=O)c3n2)cc1)C(=O)O)C(=O)O (stereo partly drawn) [Compound 119]
EC50 (KB cells; 2 h): 0.538 µM
